Earlier results in patent publication US20250302767A1, “TREATMENT OF CANCER AND AUTOIMMUNE DISORDERS USING NANO POLYMERS OF HISTONE DEACETYLASE INHIBITORS” (University of Virginia Patent Foundation, priority 2021, published 2025).

Columns and labels:
PTCL = settings: patients with PTCL, single agent, cited from earlier work; for Outcomes: ORR: pivotal trial cited per drug (romidepsin: trial (6) Coiffier et al., 2014); for Outcomes: CR / Outcomes: DOR: pivotal trial cited per drug (romidepsin: trial (6))
ALCL = settings: patients with ALCL, pivotal trials (3, 4); cited from earlier work

O=C(/C=C/c1cccc(S(=O)(=O)Nc2ccccc2)c1)NO [Belinostat]
Outcomes: ORR (PTCL): 26% | Outcomes: CR (PTCL): 11% | Outcomes: DOR (PTCL): 13.6 months

Nc1cc(F)ccc1NC(=O)c1ccc(CNC(=O)/C=C/c2cccnc2)cc1 [Chidamide, N-(2-Amino-4-fluorophenyl)-4-[[[(E)-3-pyridin-3-ylprop-2-enoyl]amino]methyl]benzamide]
Outcomes: ORR (PTCL): 28% | Outcomes: CR (PTCL): 14% | Outcomes: DOR (PTCL): 9.9 months

C#CCC(Cc1cnc2nc(N)nc(N)c2n1)c1ccc(C(=O)N[C@@H](CCC(=O)O)C(=O)O)cc1 (stereo partly drawn) [Pralatrexate]
Outcomes: ORR (PTCL): 29% | Outcomes: CR (PTCL): 11% | Outcomes: DOR (PTCL): 10.1 months

Brentuximab vedotin
Outcomes: CR (ALCL): 57% | Outcomes: DOR (ALCL): 13.2 months | Outcomes: ORR (ALCL): 86%
